Data as given in patent US20130184251A1, “HETEROAROMATIC AND AROMATIC PIPERAZINYL AZETIDINYL AMIDES AS MONOACYLGLYCEROL LIPASE INHIBITORS” (Janssen Pharmaceutica, NV, priority 2009, published 2013).
Read-outs that look alike come from different tables or passages of the source.

Tested on: HeLa cells
Experiment: 2-AG accumulation assay using HeLa cells
Assay type: cell-based
Details: for Emax at 10 µM: Homo sapiens; for Ex. 5 % MAFP @ 1 μM: 1 μM compound; for Ex. 5 % MAFP @ 1 μM / Ex. 5 % MAFP @10 μM: 2-AG relative to MAFP, HeLa homogenate; for Ex. 5 % MAFP @10 μM: 10 μM compound
[1] = HeLa cell homogenate, 2-AG accumulation relative to MAFP, compound @10 μM (second of two columns with the same head), read-out: Ex. 5 % MAFP @10 μM (second column)
[2] = HeLa cell homogenate, 2-AG accumulation relative to MAFP, compound @10 μM as printed (first of two columns with the same head), read-out: Ex. 5 % MAFP @10 μM (first column)

Row | Structure (SMILES) | Emax at 10 µM [1] | other results
1 | CN(c1ccc(C(=O)N2CC(N3CCN(c4ccccn4)CC3)C2)cc1)C1CCCCC1 [Compound #1, N-Cyclohexyl-N-methyl-4-{[3-(4-pyridin-2-ylpiperazin-1-yl)azetidin-1-yl]carbonyl}aniline] | 70.5% | –
2 | O=C(c1ccc(N2CCCC2)cc1)N1CC(N2CCN(c3ncccn3)CC2)C1 [Compound #2, 2-(4-{1-[(4-Pyrrolidin-1-ylphenyl)carbonyl]azetidin-3-yl}piperazin-1-yl)pyrimidine] | 105% | –
3 | O=C(c1ccc(Oc2ccccc2)cc1)N1CC(N2CCN(c3ncccn3)CC2)C1 [Compound #20, 2-(4-{1-[(4-Phenoxyphenyl)carbonyl]azetidin-3-yl}piperazin-1-yl)pyrimidine] | 71.9% | –
4 | N#Cc1cccnc1N1CCN(C2CN(C(=O)c3ccc(C4CCCCC4)cc3)C2)CC1 [Compound #21, 2-(4-{1-[(4-Cyclohexylphenyl)carbonyl]azetidin-3-yl}piperazin-1-yl)pyridine-3-carbonitrile] | 79.5% | –
5 | CC(C)(C)c1nc2ccc(C(=O)N3CC(N4CCN(c5ccccn5)CC4)C3)cc2o1 [Compound #209] | – | Ex. 5 % MAFP @ 1 μM: 19.9 % MAFP; Ex. 5 % MAFP @10 μM: 47.3 % MAFP
6 | COc1ccc(-c2nc3cccc(C(=O)N4CC(N5CCN(c6ccccn6)CC5)C4)c3o2)cc1 [Compound #210] | – | Ex. 5 % MAFP @10 μM: 79.5 % MAFP
7 | O=C(c1ccc2nc(C3CCCCC3)oc2c1)N1CC(N2CCN(c3ccccn3)CC2)C1 [Compound #211] | – | Ex. 5 % MAFP @ 1 μM: 39.7 % MAFP; Ex. 5 % MAFP @10 μM: 100.8 % MAFP
8 | CC(C)Cc1cc2cc(C(=O)N3CC(N4CCN(c5ccccn5)CC4)C3)ccc2n1CC(C)C [Compound #212] | – | Ex. 5 % MAFP @10 μM: 72.9 % MAFP
9 | CCCc1cc2cc(C(=O)N3CC(N4CCN(c5ccccn5)CC4)C3)ccc2n1C [Compound #213] | – | Ex. 5 % MAFP @10 μM: 61.1 % MAFP
10 | CC(C)Cn1c(-c2ccccc2)cc2cc(C(=O)N3CC(N4CCN(c5ccccn5)CC4)C3)ccc21 [Compound #214] | – | Ex. 5 % MAFP @10 μM: 93.5 % MAFP
11 | COc1cccc(-c2nc3cc(C(=O)N4CC(N5CCN(c6ccccn6)CC5)C4)ccc3o2)c1 [Compound #216] | – | Ex. 5 % MAFP @10 μM: 86.9 % MAFP
12 | O=C(c1ccc(N2CCCCCC2)cc1)N1CC(N2CCN(c3ccccn3)CC2)C1 [compound 3, 1-(4-{[3-(4-Pyridin-2-ylpiperazin-1-yl)azetidin-1-yl]carbonyl}phenyl)azepane] | 67.3% | –
13 | O=C(c1ccc(-c2cccc(C(F)(F)F)c2)cc1)N1CC(N2CCN(c3ncccn3)CC2)C1 [compound 4, 2-[4-(1-{[3′-(Trifluoromethyl)biphenyl-4-yl]carbonyl}azetidin-3-yl)piperazin-1-yl]pyrimidine] | 112% | –
14 | COc1ccc(-c2ccc(C(=O)N3CC(N4CCN(c5ncccn5)CC4)C3)cc2)cc1 [compound 5, 2-(4-{1-[(4′-Methoxybiphenyl-4-yl)carbonyl]azetidin-3-yl}piperazin-1-yl)pyrimidine] | 98.8% | –
15 | O=C(c1ccc(C2CCCCC2)cc1)N1CC(N2CCN(c3nccs3)CC2)C1 [compound 6, 1-{1-[(4-Cyclohexylphenyl)carbonyl]azetidin-3-yl}-4-(1,3-thiazol-2-yl)piperazine] | 41.5% | Emax at 10 µM [2]: 24.3%
16 | O=C(c1ccc(-c2ccccc2Cl)cc1)N1CC(N2CCN(c3ncccn3)CC2)C1 [compound 8, 2-(4-{1-[(2′-Chlorobiphenyl-4-yl)carbonyl]azetidin-3-yl}piperazin-1-yl)pyrimidine] | 58.3% | –
17 | O=C(c1ccc(-c2ccc(F)cc2)cc1)N1CC(N2CCN(c3ncccn3)CC2)C1 [compound 9, 2-(4-{1-[(4′-Fluorobiphenyl-4-yl)carbonyl]azetidin-3-yl}piperazin-1-yl)pyrimidine] | 81% | –
18 | O=C(c1ccc2nc(C3CCCCC3)oc2c1)N1CC(N2CCN(c3ncccn3)CC2)C1 [compound 10, 2-Cyclohexyl-6-{[3-(4-pyrimidin-2-ylpiperazin-1-yl)azetidin-1-yl]carbonyl}-1,3-benzoxazole] | 115% | Emax at 10 µM [2]: 97.8%
19 | O=C(c1ccc(-c2ccc(Cl)c(Cl)c2)cc1)N1CC(N2CCN(c3ncccn3)CC2)C1 [compound 11, 2-(4-{1-[(3′,4′-Dichlorobiphenyl-4-yl)carbonyl]azetidin-3-yl}piperazin-1-yl)pyrimidine] | 55.2% | –
20 | Cc1nc2cc(C(=O)N3CC(N4CCN(c5ncccn5)CC4)C3)ccc2n1-c1ccccc1 [compound 14, 2-Methyl-1-phenyl-5-{[3-(4-pyrimidin-2-ylpiperazin-1-yl)azetidin-1-yl]carbonyl}-1H-benzimidazole] | 106% | –

Row | Structure (SMILES) | Emax at 10 µM [1] | other results
21 | O=C(c1ccc(C2CCCCC2)cc1)N1CC(N2CCN(c3ccccn3)CC2)C1 [compound 15, 1-{1-[(4-Cyclohexylphenyl)carbonyl]azetidin-3-yl}-4-pyridin-2-ylpiperazine] | 47.6% | –
22 | CC(C)n1c(C(F)(F)F)nc2cc(C(=O)N3CC(N4CCN(c5ncccn5)CC4)C3)ccc21 [compound 16, 1-(1-Methylethyl)-5-{[3-(4-pyrimidin-2-ylpiperazin-1-yl)azetidin-1-yl]carbonyl}-2-(trifluoromethyl)-1H-benzimidazole] | 91.5% | –
23 | Cc1nc2cc(C(=O)N3CC(N4CCN(c5ncccn5)CC4)C3)ccc2n1C1CCCCC1 [compound 17, 1-Cyclohexyl-2-methyl-5-{[3-(4-pyrimidin-2-ylpiperazin-1-yl)azetidin-1-yl]carbonyl}-1H-benzimidazole] | 83.9% | –
24 | CN(c1ccccc1)c1ccc(C(=O)N2CC(N3CCN(c4ccccn4)CC3)C2)cc1 [compound 18, N-Methyl-N-phenyl-4-{[3-(4-pyridin-2-ylpiperazin-1-yl)azetidin-1-yl]carbonyl}aniline] | 66.2% | –
25 | N#Cc1cccnc1N1CCN(C2CN(C(=O)c3ccc(-c4ccccc4)cc3)C2)CC1 [compound 23, 2-(4-[1-(Biphenyl-4-ylcarbonyl)azetidin-3-yl]piperazin-1-yl}pyridine-3-carbonitrile] | 96.8% | –
26 | O=C(c1ccc(Cc2ccccc2)cc1)N1CC(N2CCN(c3ncccn3)CC2)C1 [compound 24, 2-(4-{1-[(4-Benzylphenyl)carbonyl]azetidin-3-yl}piperazin-1-yl)pyrimidine] | 81.9% | –
27 | O=C(c1ccc(-n2cccc2)cc1)N1CC(N2CCN(c3ncccn3)CC2)C1 [compound 25, 2-[4-(1-{[4-(1H-Pyrrol-1-yl)phenyl]carbonyl}azetidin-3-yl)piperazin-1-yl]pyrimidine] | 87.7% | –
28 | O=C(c1ccc(-c2ccccc2)c(F)c1)N1CC(N2CCN(c3ncccn3)CC2)C1 [compound 26, 2-(4-{1-[(2-Fluorobiphenyl-4-yl)carbonyl]azetidin-3-yl}piperazin-1-yl)pyrimidine] | 125% | –
29 | O=C(Nc1ccc(C(=O)N2CC(N3CCN(c4ccccn4)CC3)C2)cc1)C1CCCCC1 [compound 27, N-(4-{[3-(4-Pyridin-2-ylpiperazin-1-yl)azetidin-1-yl]carbonyl}phenyl)cyclohexanecarboxamide] | 110% | Emax at 10 µM [2]: 66.2%
30 | CN(C)c1ccc(C(=O)N2CC(N3CCN(c4ncccn4)CC3)C2)cc1 [compound 28, N,N-Dimethyl-4-{[3-(4-pyrimidin-2-ylpiperazin-1-yl)azetidin-1-yl]carbonyl}aniline] | 82.2% | –
31 | CC1(C)CCC(C)(C)c2cc(CCC(=O)N3CC(N4CCN(c5ccccn5)CC4)C3)ccc21 [compound 29, 1-Pyridin-2-yl-4-{1-[3-(5,5,8,8-tetramethyl-5,6,7,8-tetrahydronaphth-2-yl)propanoyl]azetidin-3-yl}piperazine] | 76.5% | –
32 | O=C(c1ccc(Cc2ccccc2)cc1)N1CC(N2CCN(c3ccccn3)CC2)C1 [compound 30, 1-{1-[(4-Benzylphenyl)carbonyl]azetidin-3-yl}-4-pyridin-2-ylpiperazine] | 37.3% | Emax at 10 µM [2]: 34.7%
33 | CCCn1ccc2cc(C(=O)N3CC(N4CCN(c5ccccn5)CC4)C3)ccc21 [compound 31, 1-Propyl-5-{[3-(4-pyridin-2-ylpiperazin-1-yl)azetidin-1-yl]carbonyl}-1H-indole] | 69.5% | –
34 | O=C(c1ccc(C2CCCCC2)cc1)N1CC(N2CCN(c3noc4ccccc34)CC2)C1 [compound 33, 3-(4-{1-[(4-Cyclohexylphenyl)carbonyl]azetidin-3-yl}piperazin-1-yl)-1,2-benzisoxazole] | 33% | Emax at 10 µM [2]: 17.5%
35 | CCCCc1ccc(C(=O)N2CC(N3CCN(c4ccccn4)CC3)C2)cc1 [compound 35, 1-{1-[(4-Butylphenyl)carbonyl]azetidin-3-yl}-4-pyridin-2-ylpiperazine] | 66.7% | –
36 | O=C(c1ccc(-c2ccccc2)cc1)N1CC(N2CCN(c3nccs3)CC2)C1 [compound 36, 1-[1-(Biphenyl-4-ylcarbonyl)azetidin-3-yl]-4-(1,3-thiazol-2-yl)piperazine] | 91.3% | –
37 | CCN(CC)c1ccc(C(=O)N2CC(N3CCN(c4ccccn4)CC3)C2)cc1 [compound 37, N,N-Diethyl-4-{[3-(4-pyridin-2-ylpiperazin-1-yl)azetidin-1-yl]carbonyl}aniline] | 65.9% | Emax at 10 µM [2]: 32%
38 | Cc1c(C(=O)N2CC(N3CCN(c4ccccn4)CC3)C2)nn(-c2ccc(Cl)cc2Cl)c1-c1ccc(Cl)cc1 [compound 39, 1-(1-{[5-(4-Chlorophenyl)-1-(2,4-dichlorophenyl)-4-methyl-1H-pyrazol-3-yl]carbonyl}azetidin-3-yl)-4-pyridin-2-ylpiperazine] | – | Emax at 10 µM (HeLa, read-out: Ex. 5 % MAFP @10 μM): 87.6%
39 | CN(CC1CCCCC1)c1ccc(CCC(=O)N2CC(N3CCN(c4ccccn4)CC3)C2)cc1 [compound 40, N-(Cyclohexylmethyl)-N-methyl-4-{3-oxo-3-[3-(4-pyridin-2-ylpiperazin-1-yl)azetidin-1-yl]propyl}aniline] | 90.4% | Emax at 10 µM [2]: 77.3%
